The results in this text go back to patent US5382586A, “Aryl (or heteroaryl)piperazinylalkylazole derivatives, their preparation and their application as medicaments” (priority 1991, dated 1995).

For test [1], the system named is conditioned avoidance response in male Wistar rats. The test can be described thus: conditioned avoidance response test (inhibition of the conditioned avoidance response; anxiolytic/tranquillising activity). It is filed as in vivo, rat (male Wistar). The settings on record: rat; for Activity % (inhibition of the conditioned avoidance response): D = 80 mg/kg, p.o., 45 min before test; for ED50: po, 0.75 h. The method, then:
Male Wistar rats weighing 200 grammes which have been trained to jump over a barrier in an avoidance and escape cage (shuttle box) (Letica, reference LI 910 and LI 2700) within 30 seconds of their being introduced into the cage are used in this test.
The products having an anxiolytic or tranquillising activity suppress the conditioned avoidance response.
Training: day one: 11 trials at 3 minute intervals. Electric shock to the paws after 30 seconds (5 mA, 0.1 s, 10 s).
Days two and three: 2 trials per day, with the selected rats only [sum of the scores for the first day (with the exception of the first trial)>14].
Test day: groups formed by selected rats. Oral administration of the product or the vehicle 45 minutes before the start of the study.

The test system of test [2] is norepinephrine-induced death in rats. The test can be described thus: norepinephrine antagonism test in rats (antihypertensive activity). It is filed as in vivo, rat (male Wister). Conditions: for Activity % (norepinephrine antagonistic antihypertensive activity): D = 40 mg/kg, i.p., rat, norepinephrine 1.25 mg/kg i.v. after 2 hours; for ED50: Rattus norvegicus, ip, 2 h, read-out: ED50 (norepinephrine antagonistic antihypertensive activity). The method, then:
This activity is manifested by the protection of animals before death induced by an intravenous injection of norepinephrine, which produces a hypertensive attack in rats.
Male Wister rats weighing 200 grammes are used in this test. The product to be studied is administered intraperitoneally and 1.25 mg/kg (i.v.) of norepinephrine are administered after 2 hours.
The initial administration dose in these studies is 40 mg/kg (i.p.).

Take `c1ccc(-c2c(-c3ccccc3)n(CCCCN3CCN(c4ncccn4)CC3)c3ccccc23)cc1` [Example 4]: the “Activity % (inhibition of the conditioned avoidance response)” value in test [1] stood at 30%. The “Activity % (norepinephrine antagonistic antihypertensive activity)” value in test [2] is given as 0%.

For orientation: ED50 means the dose at which the effect has come halfway, by size or by number of responders. Turning to `NC(=O)c1cnn(CCCCN2CCN(c3ncccn3)CC2)c1` [Example 5, 4-carboxamido-1-{4-[4-(2-pyrimidinyl)-1-piperazinyl]-butyl}-1H-pyrazole], in test [1], the “Activity % (inhibition of the conditioned avoidance response)” value is listed as 68% and it took a dose of 33.5 mg/kg to reach the 50% effect level (ED50). Moreover, the “Activity % (norepinephrine antagonistic antihypertensive activity)” value in test [2] is reported as 0%.

Regarding `O=C(O)c1cnn(CCCCN2CCN(c3ncccn3)CC2)c1` [Example 6, 4-carboxy-1-{4-[4-(2-pyrimidinyl)-1-piperazinyl]-butyl}-1H-pyrazole], in test [1], the “Activity % (inhibition of the conditioned avoidance response)” value was found to be 57% and the 50% effect level (ED50) was put at a dose of 44.3 mg/kg. In addition, in test [2], the “Activity % (norepinephrine antagonistic antihypertensive activity)” value is 75% and the ED50 stood at 31.7 mg/kg.

Take `Cc1cc(C(F)(F)F)n(CCCCN2CCN(c3ncccn3)CC2)n1` [Example 7]: in test [1], the “Activity % (inhibition of the conditioned avoidance response)” value came out at 74% and the ED50 is 29 mg/kg. The “Activity % (norepinephrine antagonistic antihypertensive activity)” value in test [2] is recorded as 0%.

For `c1ccc(-c2ncn(CCCCN3CCN(c4ncccn4)CC3)c2-c2ccccc2)cc1` [Example 8], the “Activity % (inhibition of the conditioned avoidance response)” value in test [1] was 29%. For the same molecule, the “Activity % (norepinephrine antagonistic antihypertensive activity)” value in test [2] was 0%.

Regarding `c1ccc(-c2nc(-c3ccccc3)n(CCCCN3CCN(c4ncccn4)CC3)c2-c2ccccc2)cc1` [Example 9], the “Activity % (inhibition of the conditioned avoidance response)” value in test [1] came to 8%. For the same molecule, the “Activity % (norepinephrine antagonistic antihypertensive activity)” value in test [2] is on record as 0%.

In the case of `Cc1nc(-c2ccccc2)c(-c2ccccc2)n1CCCCN1CCN(c2ncccn2)CC1` [Example 10], the “Activity % (inhibition of the conditioned avoidance response)” value in test [1] was 38%. Besides, the “Activity % (norepinephrine antagonistic antihypertensive activity)” value in test [2] was found to be 0%.

Regarding `Cc1nc(Cl)c(Cl)n1CCCCN1CCN(c2ncccn2)CC1` [Example 11, 4,5-dichloro-2-methyl-1-{4-[4-(2-pyrimidinyl)-1-piperazinyl]-butyl}-1H-imidazole], in test [1], the “Activity % (inhibition of the conditioned avoidance response)” value is 82%. In addition, the “Activity % (norepinephrine antagonistic antihypertensive activity)” value in test [2] is recorded as 0%.

`CCc1nccn1CCCCN1CCN(c2ncccn2)CC1` [Example 12]: the “Activity % (inhibition of the conditioned avoidance response)” value in test [1] came to 46%. Also, the “Activity % (norepinephrine antagonistic antihypertensive activity)” value in test [2] worked out at 0%.

Regarding `c1ccc(-c2nccn2CCCCN2CCN(c3ncccn3)CC2)cc1` [Example 13], in test [1], the “Activity % (inhibition of the conditioned avoidance response)” value came to 70% and it took a dose of 17.1 mg/kg to reach the 50% effect level (ED50). For the same molecule, the “Activity % (norepinephrine antagonistic antihypertensive activity)” value in test [2] worked out at 0%.

On to `COC(=O)c1cn(CCCCN2CCN(c3ncccn3)CC2)cn1` [Example 14], for which, in test [1], the “Activity % (inhibition of the conditioned avoidance response)” value is recorded as 38%. In addition, in test [2], the “Activity % (norepinephrine antagonistic antihypertensive activity)” value was 0%.

`c1ccc(-c2cn(CCCCN3CCN(c4ncccn4)CC3)cn2)cc1` [Example 15]: in test [1], the “Activity % (inhibition of the conditioned avoidance response)” value is 73% and the 50% effect level (ED50) was put at a dose of 28 mg/kg. Further, in test [2], the “Activity % (norepinephrine antagonistic antihypertensive activity)” value is given as 0%.

Turning to `c1cnc(N2CCN(CCCCn3cnc4ccccc43)CC2)nc1` [Example 16, 1-{4-[4-(2-pyrimidinyl)-1-piperazinyl]-butyl}-1H-benzimidazole], in test [1], the “Activity % (inhibition of the conditioned avoidance response)” value was 100% and the ED50 stood at 6.1 mg/kg. The “Activity % (norepinephrine antagonistic antihypertensive activity)” value in test [2] is 0%.

On to `c1cnc(N2CCN(CCCCn3cnc4cccnc43)CC2)nc1` [Example 17, 1-{4-[-4-(2-pyrimidinyl)-1-piperazinyl]-butyl}-3H-imidazo[5,4-b]pyridine], for which, in test [1], the “Activity % (inhibition of the conditioned avoidance response)” value worked out at 86% and the ED50 is 21.9 mg/kg. Besides, the “Activity % (norepinephrine antagonistic antihypertensive activity)” value in test [2] was 0%.

As for `c1cnc(N2CCN(CCCCn3cnc4ncccc43)CC2)nc1` [Example 18, 1-{4-[4-(2-pyrimidinyl)-1-piperazinyl]-butyl}-1H-imidazo[4,5-b]pyridine], in test [1], the “Activity % (inhibition of the conditioned avoidance response)” value is 91% and the ED50 is 25.6 mg/kg. In test [2], the “Activity % (norepinephrine antagonistic antihypertensive activity)” value worked out at 100% and the median effective dose (ED50) was 3.97 mg/kg.

As for `c1cnc(N2CCN(CCCCn3nnc4ccccc43)CC2)nc1` [Example 19], the “Activity % (inhibition of the conditioned avoidance response)” value in test [1] amounted to 99%. In test [2], the “Activity % (norepinephrine antagonistic antihypertensive activity)” value came to 0%.

`Clc1nc2ccccc2n1CCCCN1CCN(c2ncccn2)CC1` [Example 20]: in test [1], the “Activity % (inhibition of the conditioned avoidance response)” value is listed as 77% and the ED50 is 15.4 mg/kg. In test [2], the “Activity % (norepinephrine antagonistic antihypertensive activity)” value is reported as 0%.

For `Clc1ccc2c(c1)ncn2CCCCN1CCN(c2ncccn2)CC1` [Example 21], in test [1], the “Activity % (inhibition of the conditioned avoidance response)” value stood at 100% and the ED50 was found to be 9.3 mg/kg. Further, the “Activity % (norepinephrine antagonistic antihypertensive activity)” value in test [2] is given as 0%.

In the case of `Clc1ccc2ncn(CCCCN3CCN(c4ncccn4)CC3)c2c1` [Example 22], in test [1], the “Activity % (inhibition of the conditioned avoidance response)” value worked out at 100% and it took a dose of 9.1 mg/kg to reach the 50% effect level (ED50). Moreover, the “Activity % (norepinephrine antagonistic antihypertensive activity)” value in test [2] is listed as 0%.

Turning to `c1cnc(N2CCN(CCCCn3cncn3)CC2)nc1` [Example 23], in test [1], the “Activity % (inhibition of the conditioned avoidance response)” value was 100% and the ED50 came to 6.3 mg/kg. Also, in test [2], the “Activity % (norepinephrine antagonistic antihypertensive activity)” value is given as 50%.

`c1cnc(N2CCN(CCCCn3nc4ccccc4n3)CC2)nc1` [Example 24]: the “Activity % (inhibition of the conditioned avoidance response)” value in test [1] is given as 87%. Further, in test [2], the “Activity % (norepinephrine antagonistic antihypertensive activity)” value is listed as 50%.

Regarding `Cc1nc2ccccc2n1CCCCN1CCN(c2ncccn2)CC1` [Example 25], in test [1], the “Activity % (inhibition of the conditioned avoidance response)” value is reported as 52% and it took a dose of 61.7 mg/kg to reach the 50% effect level (ED50). Besides, the “Activity % (norepinephrine antagonistic antihypertensive activity)” value in test [2] worked out at 25%.

Take `Cc1cc2ncn(CCCCN3CCN(c4ncccn4)CC3)c2cc1C` [Example 26]: in test [1], the “Activity % (inhibition of the conditioned avoidance response)” value worked out at 88% and the median effective dose (ED50) was determined as 34.5 mg/kg. Moreover, the “Activity % (norepinephrine antagonistic antihypertensive activity)” value in test [2] was 0%.

On to `COc1ccc(N2CCN(CCCCn3cc(Cl)cn3)CC2)cc1` [Example 27], for which the “Activity % (inhibition of the conditioned avoidance response)” value in test [1] is listed as 88%. Besides, in test [2], the “Activity % (norepinephrine antagonistic antihypertensive activity)” value was found to be 0%.

On to `COc1ccc(N2CCN(CCCCn3c(C)nc(Cl)c3Cl)CC2)cc1` [Example 28], for which, in test [1], the “Activity % (inhibition of the conditioned avoidance response)” value stood at 75% and it took a dose of 37.5 mg/kg to reach the 50% effect level (ED50). Also, in test [2], the “Activity % (norepinephrine antagonistic antihypertensive activity)” value is recorded as 100% and the 50% effective dose (ED50) is 14 mg/kg.

As to `COc1ccccc1N1CCN(CCCCn2cc(Cl)cn2)CC1` [Example 29], in test [1], the “Activity % (inhibition of the conditioned avoidance response)” value was determined as 100% and the 50% effect level (ED50) was put at a dose of 8.9 mg/kg. Moreover, in test [2], the “Activity % (norepinephrine antagonistic antihypertensive activity)” value is 100% and the median effective dose (ED50) was 0.46 mg/kg.

Turning to `COc1ccccc1N1CCN(CCCCn2c(C)nc(Cl)c2Cl)CC1` [Example 30], in test [1], the “Activity % (inhibition of the conditioned avoidance response)” value was 95% and the 50% effect level (ED50) was put at a dose of 12.8 mg/kg. In test [2], the “Activity % (norepinephrine antagonistic antihypertensive activity)” value amounted to 100% and the median effective dose (ED50) is 0.18 mg/kg.

On to `COc1cccc(N2CCN(CCCCn3cc(Cl)cn3)CC2)c1` [Example 31], for which, in test [1], the “Activity % (inhibition of the conditioned avoidance response)” value was determined as 100% and the ED50 was found to be 20.8 mg/kg. Moreover, in test [2], the “Activity % (norepinephrine antagonistic antihypertensive activity)” value worked out at 0% and the median effective dose (ED50) amounted to 8.9 mg/kg.

Consider `COc1ccc(N2CCN(CCCCn3cccc3)CC2)cc1` [Example 32], for which, in test [1], the “Activity % (inhibition of the conditioned avoidance response)” value came to 83% and the 50% effective dose (ED50) was 50 mg/kg. In addition, in test [2], the “Activity % (norepinephrine antagonistic antihypertensive activity)” value is on record as 0%.

As for `COc1ccccc1N1CCN(CCCCn2cccc2)CC1` [Example 33], in test [1], the “Activity % (inhibition of the conditioned avoidance response)” value is 99% and it took a dose of 23.9 mg/kg to reach the 50% effect level (ED50). For the same molecule, in test [2], the “Activity % (norepinephrine antagonistic antihypertensive activity)” value is 100% and the median effective dose (ED50) is 2.23 mg/kg.

`c1ccc(N2CCN(CCCCn3cccc3)CC2)cc1` [Example 34]: in test [1], the “Activity % (inhibition of the conditioned avoidance response)” value is 96% and the 50% effect level (ED50) was put at a dose of 23.7 mg/kg. Further, in test [2], the “Activity % (norepinephrine antagonistic antihypertensive activity)” value worked out at 100% and the median effective dose (ED50) came to 10 mg/kg.

As to `Clc1cnn(CCCCN2CCN(c3ccccc3)CC2)c1` [Example 35, 4-chloro-1-[4-(4-phenyl-1-piperazinyl)-butyl]-1H-pyrazole], in test [1], the “Activity % (inhibition of the conditioned avoidance response)” value came out at 100% and the median effective dose (ED50) stood at 20.7 mg/kg. In addition, in test [2], the “Activity % (norepinephrine antagonistic antihypertensive activity)” value amounted to 100% and the ED50 is 4.1 mg/kg.

Take `Cc1nc(Cl)c(Cl)n1CCCCN1CCN(c2ccccc2)CC1` [Example 36]: in test [1], the “Activity % (inhibition of the conditioned avoidance response)” value stood at 76% and the ED50 was determined as 42 mg/kg. Further, in test [2], the “Activity % (norepinephrine antagonistic antihypertensive activity)” value was 100% and the 50% effective dose (ED50) was 7.6 mg/kg.

Consider `Clc1cnn(CCCCN2CCN(c3ccccc3Cl)CC2)c1` [Example 37], for which, in test [1], the “Activity % (inhibition of the conditioned avoidance response)” value was found to be 86% and the ED50 was 29.5 mg/kg. Also, in test [2], the “Activity % (norepinephrine antagonistic antihypertensive activity)” value worked out at 100% and the ED50 is 1.9 mg/kg.
